Data: patent US4046897A, “5-Mercaptopyridoxine alkanesulfonates and methods of use and pharmaceutical compositions” (Merck & Co., Inc., priority 1976, dated 1977)
Counter-ions that a name gives are not always drawn.

Test: Comparison of thermal stability of 5-MP salts (pure unformulated compound, colorimetric assay for intact thiol group)
Format: physicochemical
Settings: for Thermal Stability % Remaining: pure unformulated salt
Method: Thus, in order to evaluate the relative stability of several salts of 5-mercaptopyridoxine, the test salts selected (i.e., the ethane-1,2-disulfonate, the phosphate, the sulfamate, the nitrate and the hydrochloride) were subjected to accelerated conditions of high temperature as the pure, unformulated, compound. The high temperature date obtained at 80° C. and at 105° C. is conventionally used in the pharmaceutical industry to screen compounds in as short a time as possible. Where a number of derivatives or salts are available, comparative data can be obtained and the test compounds can be ranked in an expected order of stability. The thermally stressed salts were assayed colorimetrically for intact thiol group. The ethanedisulfonate, hydrochloride and sulfamate salts also were subjected to NMR analysis to confirm the chemical analysis. The NMR data supports the chemical data.

Cc1ncc(CS)c(CO)c1O [Ethanedisulfonate, Bis(2-methyl-3-hydroxy-4-hydroxymethyl-5-mercaptomethyl-pyridinium) ethane-1,2-disulfonate]
Thermal Stability % Remaining (80° C, 1 week, 10080 min): 101.0%
Thermal Stability % Remaining (80° C, 3 weeks, 30240 min): 100.2%
Thermal Stability % Remaining (105° C, 3 days, 4320 min): 97.3%
Thermal Stability % Remaining (105° C, 7 days, 10080 min): 99.4%
relative thermal/chemical stability among 5-MP salts (in words) (at the temperatures employed (80° C and 105° C)): most stable salt

Cc1ncc(CS)c(CO)c1O [Hydrochloride, 5-mercaptopyridoxine hydrochloride]
Thermal Stability % Remaining (80° C, 1 week, 10080 min, hydrochloride): 70.5%
Thermal Stability % Remaining (80° C, 3 weeks, 30240 min, hydrochloride): 57.3%
Thermal Stability % Remaining (105° C, 3 days, hydrochloride, 4320 min): 57.3%

Cc1ncc(CS)c(CO)c1O [Nitrate]
Thermal Stability % Remaining (80° C, 1 week, 10080 min): 87.2%

Cc1ncc(CS)c(CO)c1O [Phosphate]
Thermal Stability % Remaining (105° C, 3 days, 4320 min): 93.0%
Thermal Stability % Remaining (105° C, 7 days, 10080 min): 58.0%

Cc1ncc(CS)c(CO)c1O [Sulfamate]
Thermal Stability % Remaining (80° C, 1 week, 10080 min): 94.0%
Thermal Stability % Remaining (80° C, 3 weeks, 30240 min): 75.7%
Thermal Stability % Remaining (105° C, 3 days, 4320 min): 13.0%
Thermal Stability % Remaining (105° C, 7 days, 10080 min): 8.8%
